Some results are limits rather than exact numbers.

The values that follow come from ChEMBL document CHEMBL1133377, “1-[2-(Diphenylmethoxy)ethyl]-2-methyl-5-nitroimidazole: a potent lead for the design of novel NNRTIs” (Bioorg Med Chem Lett, 2000).

One experiment has as its system MT4. In words: Compound dose required to achieve protection of MT-4 cells from HIV-1 induced cytopathicity using MTT method. The format is functional, cell-based. To be noted: Homo sapiens. (Protection from cytopathic effect is a common read-out in antiviral testing.)
In experiment [1] the target is Human immunodeficiency virus type 1 reverse transcriptase (Human immunodeficiency virus 1, UniProt Q72547). The experiment in a line: Compound dose required to inhibit HIV-1 reverse transcriptase enzyme(rRT) activity.
A short description of experiment [2]: Compound dose required to reduce viability of mock infected cells using MTT method. The format is functional. For orientation: Tetrazolium dyes change colour on reduction, which living cells bring about.
The nature of experiment [3]: Selectivity index is ratio of CC50 to that of EC50. The experiment is classed as functional.

As a reminder, the EC50 is the midpoint of the concentration-response curve. Read a low EC50 as greater potency. By IC50 is commonly meant the concentration needed to halve the response being measured. As usually defined, the CC50 is the concentration that lowers cell viability or growth by half. The compound `Cc1ncc([N+](=O)[O-])n1CCOC(c1ccccc1)c1ccc(C(C)(C)C)cc1` (centres undefined) gave a 50% effective concentration (EC50) in the experiment with MT4 of 4 µM. In addition, in experiment [1], the IC50 turned out to be 1.5 µM. Moreover, the CC50 in experiment [2] is 44 µM. Moreover, the S.I in experiment [3] turned out to be 11.
For `Cc1ncc([N+](=O)[O-])n1CCOC(c1ccccc1)c1ccc(F)cc1` (centres undefined), in that order: 0.9 µM, 2.3 µM, more than 200 µM and 222.
For `Cc1ccc(C(OCCn2c([N+](=O)[O-])cnc2C)c2ccccc2)cc1` (centres undefined), in that order: 1.4 µM, 2.1 µM, 86 µM and 61.
For `Cc1ncc([N+](=O)[O-])n1CCOC(c1ccccc1)c1ccccc1`, in that order: 0.2 µM, 0.05 µM, more than 200 µM and more than 1000.
For `c1ccc(C(OCCn2ccnc2)c2ccccc2)cc1`, in the experiment with MT4, the EC50 was more than 100 µM. The same compound yielded a CC50 in experiment [2] of 100 µM.
In the experiment with MT4, `Cc1ncc([N+](=O)[O-])n1CCOC(c1ccccc1)c1ccc(Cl)cc1Cl` (centres undefined) gave a concentration for a half-maximal effect (EC50) of 1.5 µM. In addition, the midpoint of inhibition in experiment [1], the IC50, lay at 1.4 µM. In experiment [2], this compound showed a CC50 of 54 µM. Moreover, the S.I in experiment [3] stood at 36.
`Cc1ncc([N+](=O)[O-])n1CCOC(c1ccccc1)c1ccc(Cl)cc1` (centres undefined) returned an EC50 with MT4 of 12.5 µM. In addition, in experiment [2], the CC50 is more than 200 µM. For the same compound, in experiment [3], the S.I was more than 16.
As for `Clc1ccc(C(OCCn2ccnc2)c2ccc(Cl)cc2Cl)cc1` (centres undefined), the EC50 in the experiment with MT4 is more than 26 µM. The same compound yielded a CC50 in experiment [2] of 26 µM.
On to `Cc1ncc([N+](=O)[O-])n1CCOC(c1ccccc1)c1ccc(-c2ccccc2)cc1` (centres undefined), for which, in the experiment with MT4, the EC50 was found to be 17 µM. Besides, the CC50 in experiment [2] is more than 200 µM. The S.I in experiment [3] worked out at 12.
For the compound `Clc1ccc(C(OCCn2ccnc2)c2ccccc2)c(Cl)c1` (centres undefined), the EC50 with MT4 was more than 31 µM. The CC50 in experiment [2] stood at 31 µM.
For `Cc1ccnc2c1NC(=O)c1cccnc1N2C1CC1` [NEVIRAPINE], the CC50 in experiment [2] is more than 300 µM. Besides, the S.I in experiment [3] was more than 1000.
